# Data published in patent publication US20140128409A1, “MEDICAMENTS FOR THE TREATMENT OR PREVENTION OF FIBROTIC DISEASES” (BOEHRINGER INGELHEIM INTERNATIONAL GMBH, priority 2004, published 2014).
# Legend:
# Format in all cases: in vivo, rat
# [1] = test system: fibronectin gene expression; test: Expression of fibrotic marker gene fibronectin in lung following bleomycin-induced pulmonary fibrosis (real time PCR); settings: bleomycin-treated rats, 50 mg/kg daily, day 21, versus bleomycin + vehicle; FIG. 3
# Procedure: (§1) All experiments were performed in accordance with German guidelines for animal welfare, performed by persons certified to work with animals and approved by the responsible authorities. Male Wistar rats were intratracheally injected with Bleomycin sulfate (10 U/kg body weight in 300 μl saline) or saline alone (saline control) using a catheter (0.5 mm internal diameter, 1.0 mm external diameter) through the nasal passage, following exposure to the anaesthetic Isofluorane for 5 minutes. The following day, the rats were orally treated with Example A (compound (134)) or saline suspended in 1 ml 0.1% Natrosol. Control rats were administered 1 ml 0.1% Natrosol (vehicle control).
# (§2) 21 days following bleomycin instillation, the rats were killed with a lethal intraperitoneal injection of Narcoren™ (Pentobarbital Sodium, Rhone Merieux). The lungs were then removed, blotted dry and half was snap frozen in liquid nitrogen and stored at −80° C. The other half was fixed in 4% formalin for subsequent paraffin embedding and histology.
# (§3) (B) Effect of a representative compound on expression of fibrotic marker genes following bleomycin-induced pulmonary fibrosis.
# (§4) One part of the frozen lung tissue dedicated to investigation of gene expression was cut into small pieces using a sterile scalpel blade. […] The concentration of each sample was then measured using a spectrophotometer. […]
# [2] = test system: procollagen I gene expression; test: Expression of fibrotic marker gene procollagen I in lung following bleomycin-induced pulmonary fibrosis (real time PCR); settings: bleomycin-treated rats, 50 mg/kg daily, day 21, versus bleomycin + vehicle; FIG. 2
# Procedure: as §1, §2, §3, §4
# [3] = test system: bleomycin-induced pulmonary fibrosis; test: Lung morphology following bleomycin-induced pulmonary fibrosis (histology, Masson's Trichrome collagen staining); settings: male Wistar rats, bleomycin 10 U/kg intratracheally; 50 mg/kg daily orally, days 1-21; histology 21 days after instillation; FIG. 1C
# Procedure: (A) Effect of a representative compound on lung morphology following bleomycin-induced pulmonary fibrosis. All experiments were performed in accordance with German guidelines for animal welfare, performed by persons certified to work with animals and approved by the responsible authorities. Male Wistar rats were intratracheally injected with Bleomycin sulfate (10 U/kg body weight in 300 μl saline) or saline alone (saline control) using a catheter (0.5 mm internal diameter, 1.0 mm external diameter) through the nasal passage, following exposure to the anaesthetic Isofluorane for 5 minutes. The following day, the rats were orally treated with Example A (compound (134)) or saline suspended in 1 ml 0.1% Natrosol. Control rats were administered 1 ml 0.1% Natrosol (vehicle control). [table] 21 days following bleomycin instillation, the rats were killed with a lethal intraperitoneal injection of Narcoren™ (Pentobarbital Sodium, Rhone Merieux). The lungs were then removed, blotted dry and half was snap frozen in liquid nitrogen and stored at −80° C. The other half was fixed in 4% formalin for subsequent paraffin embedding and histology. The lung tissues fixed in 4% formalin were embedded into paraffin and 5 μm sections were cut using a microtome (Leica SM200R) and placed on poly-L-lysine coated slides. […] Collagen deposition was assessed using Masson's Trichrome staining.
smiles,measurement,setting,value
"CN(C)Cc1ccc(N/C(=C2\C(=O)Nc3cc(F)ccc32)c2ccc(CCC(=O)O)cc2)cc1 [Example A, 3-Z-[1-(4-dimethylaminomethylanilino)-1-(4-(2-carboxyethyl)phenyl)methylene]-6-fluoro-2-indolinone]",fibronectin gene expression in lung (normalized to 18S),[1],significant (p≦0.0001) inhibition
same,procollagen I gene expression in lung (normalized to 18S),[2],significant (p≦0.0001) inhibition
same,fibroblast infiltration or extracellular matrix deposition in lung,[3],little or no fibroblast infiltration or extracellular matrix deposition has occurred
same,"lung fibrosis (lung morphology, collagen deposition staining)",[3],"consistent, nearly complete reversal of lung fibrosis"
